Measured values as given in publication PMC7154053, “Chemical, Metabolic, and Cellular Characterization of a FtsZ Inhibitor Effective Against Burkholderia cenocepacia” (Frontiers in Microbiology, 2020).
≈ marks a conversion by molar mass, not a printed value. Where two headings read alike, the source gives them in different places.

Tests used:
[1] = test system: B. cenocepacia; experiment: Resazurin-based assay of BcNR reaction mixtures; type: cell-based, Burkholderia cenocepacia; settings: BcNR reactions with 1 mM C109, with or without NADPH; C109 result: in the absence of NADPH
From the text: To assess whether the resulting BcNR reduction product could inhibit B. cenocepacia growth, we carried out a resazurin-based assay.

[2] = test system: E. coli ATCC 25922; experiment: MIC, 2-fold microdilution, resazurin method; type: cell-based; settings: Escherichia coli, ATCC25922
Protocol: (§1) Burkholderia cenocepacia strains, Escherichia coli ATCC 25922, Pseudomonas aeruginosa PAO1, and Staphylococcus aureus ATCC 25923 were grown in Luria-Bertani (LB) medium (Difco), if not differently specified, with shaking at 200 rpm, or on LB agar, at 37°C.
(§2) The microtiter plates were incubated at 37°C for 48 (for B. cenocepacia) or 24 h (for all the other strains) and growth was determined by the resazurin method (Martin et al., [2006]). A solution of resazurin sodium salt (Sigma Aldrich) was prepared at 0.01% in distilled water and filter-sterilized. Thirty microliter of resazurin solution were added to each well after 1 or 2 days of incubation at 37°C, and the microtiters were re-incubated at the same temperature for 4 h. The MIC was defined as the lowest concentration of the drug that prevented a change in color from blue to pink, which indicates bacterial growth.
(§3) Three independent biological replicates were used for each MIC determination.

[3] = test system: P. aeruginosa PAO1; experiment: MIC, 2-fold microdilution, resazurin method; type: cell-based; settings: Pseudomonas aeruginosa, PAO1
Protocol: as §1, §2, §3

[4] = test system: CF bronchial epithelial (CFBE41o-) cell line; design: method as in Hogan et al., 2018; Costabile et al., 2020; settings: CFBE41o- cells; ref Hogan et al., 2018; Costabile et al., 2020; cited from earlier work
[5] = target: Burkholderia cenocepacia purified FtsZ protein (Burkholderia cenocepacia, UniProt B4E5Y7); experiment: biochemical; type: biochemical; settings: Yes/No
Sequence of Burkholderia cenocepacia purified FtsZ protein (B4E5Y7 entry or part of it): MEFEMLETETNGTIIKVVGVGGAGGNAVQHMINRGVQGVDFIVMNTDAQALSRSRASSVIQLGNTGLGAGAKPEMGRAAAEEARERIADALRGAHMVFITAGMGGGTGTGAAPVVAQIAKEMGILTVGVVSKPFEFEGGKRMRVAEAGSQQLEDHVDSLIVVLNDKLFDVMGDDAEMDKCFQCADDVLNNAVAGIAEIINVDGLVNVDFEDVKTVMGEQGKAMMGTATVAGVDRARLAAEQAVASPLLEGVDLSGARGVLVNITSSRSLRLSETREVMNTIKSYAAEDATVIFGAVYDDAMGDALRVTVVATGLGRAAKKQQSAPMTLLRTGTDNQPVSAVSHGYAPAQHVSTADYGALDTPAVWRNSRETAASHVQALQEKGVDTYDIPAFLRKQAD
Protocol: All the recombinant FtsZ proteins were expressed at 20°C overnight in E. coli BL21(DE3) cells, upon induction with 0.5 mM IPTG, and purified using the same protocol assessed for the wild-type B. cenocepacia FtsZ (Hogan et al., [2018]).
GTPase enzyme activity was determined using a pyruvate kinase/L-lactic dehydrogenase (PK/LDH) spectrophotometric coupled assay (Ingerman and Nunnari, [2005]). The assays were performed at 30°C, in a reaction mixture containing […] Hepes pH 7.5, 5 mM MgCl2, 5 mM KCl, 10 U PK/LDH, 0.25 mM NADH, 0.25 mM PEP, and 5–10 μM FtsZ, and initiated by the addition of 0.5 mM GTP. Alternatively, GTPase activity was determined by measuring the release of phosphate using the malachite green assay (Baykov et al., [1988]).
(1) A[I]=A[0]×(1-[I]/[I]+IC50)
where A[I] is the enzyme activity at inhibitor concentration [I] and A[0] is the enzyme activity without inhibitor.

[6] = test system: B. cenocepacia FCF19; experiment: Checkerboard assay with efflux pump inhibitor PaβN MC-207.110; type: cell-based, Burkholderia cenocepacia; settings: Burkholderia cenocepacia, FCF19; read-out: MIC in the presence of MC-207.110, FCF19
Protocol: as §2, with “growth. […] Three independent biological replicates were used for each MIC determination.” for “growth.”

[7] = test system: B. cenocepacia FCF22; experiment: as above; type: cell-based, Burkholderia cenocepacia; settings: Burkholderia cenocepacia, FCF22; read-out: MIC in the presence of MC-207.110, FCF22
Protocol: as §2, with “growth. […] Three independent biological replicates were used for each MIC determination.” for “growth.”

[8] = test system: S. aureus ATCC 25923; experiment: MIC, 2-fold microdilution, resazurin method; type: cell-based, Staphylococcus aureus; settings: Staphylococcus aureus, ATCC25923
Protocol: as §1, §2, §3

[9] = test system: P. aeruginosa; experiment: Checkerboard assay with efflux pump inhibitor PaβN MC-207.110; type: cell-based, Pseudomonas aeruginosa
Protocol: as §2, with “growth. […] Three independent biological replicates were used for each MIC determination.” for “growth.”

[10] = test system: B. cenocepacia FCF19; experiment: MIC, 2-fold microdilution, resazurin method; type: cell-based, Burkholderia cenocepacia; settings: Burkholderia cenocepacia; clinical isolate FCF19
Protocol: as §1, §2, §3

[11] = test system: B. cenocepacia FCF22; experiment: MIC, 2-fold microdilution, resazurin method; type: cell-based, Burkholderia cenocepacia; settings: Burkholderia cenocepacia; clinical isolate FCF22
Protocol: as §1, §2, §3

[12] = test system: B. cenocepacia J2315; experiment: MIC, 2-fold microdilution, resazurin method; type: cell-based, Burkholderia cenocepacia; settings: Burkholderia cenocepacia
Protocol: as §1, §2, §3

COC(=O)CSc1ccc2nsnc2c1[N+](=O)[O-] [C109, methyl [(4-nitro-2,1,3-benzothiadiazol-5-yl)thio]acetate]
activity against B. cenocepacia growth [1]: still active | MIC ([2]; LB, 24 h, read-out: MIC E. coli 25922): 8 µg/mL (≈ 28 µM) | MIC ([2]; Supplementary Table 1, read-out: MIC (µg/ml) E. coli 25922): 8 µg/mL (≈ 28 µM) | MIC ([3]; LB, 24 h, read-out: MIC P. aeruginosa PAO1): 128 µg/mL (≈ 449 µM) | MIC ([3]; Supplementary Table 1, read-out: MIC (µg/ml) P. aeruginosa PAO1): 128 µg/mL (≈ 449 µM) | toxic concentration at 50% (TC50) [4]: about 75 μM | Inhibition of Bc FtsZ At 100 μM ([5]; 100 μM compound): Yes | Inhibits B. cenocepacia FtsZ GTPase at 100µM? ([5]; 100 µM, Supplementary Table 1): Yes | MIC [6]: 8 µg/mL | MIC [7]: 16 µg/mL | MIC ([8]; LB, 24 h, read-out: MIC S. aureus 25923): 4 µg/mL (≈ 14 µM) | MIC ([8]; Supplementary Table 1, read-out: MIC (µg/ml) S. aureus 25923): 4 µg/mL (≈ 14 µM) | MIC ([9]; Pseudomonas aeruginosa, read-out: MIC in the presence of MC-207.110, P. aeruginosa): 1 µg/mL | effect of combination with MC-207.110 ([9]; checkerboard, P. aeruginosa): synergistic effect | MIC [10]: 128 µg/mL (≈ 449 µM) | MIC [11]: 256 µg/mL (≈ 897 µM) | MIC ([12]; J2315, read-out: MIC (µg/ml) B. cenocepacia J2315): 8 µg/mL (≈ 28 µM) | MIC ([12]; J2315, LB, 48 h, read-out: MIC B. cenocepacia J2315): 8 µg/mL (≈ 28 µM)
